In patent publication US11007208B2 (priority 2015, dated 2021):
Where two headings read alike, the source gives them in different places.

Tests used:
SARS-CoV [1] = test: microbe, parasite or virus in culture; assay type: cell-based; conditions: Severe acute respiratory syndrome coronavirus, HAE, read-out: EC50 SARS (HAE)
in vitro [2] = conditions: human
in vitro [3] = conditions: human; remark: listed apart in the source
MERS-CoV [4] = test: microbe, parasite or virus in culture; assay type: cell-based; conditions: Middle East respiratory syndrome-related coronavirus, HAE, read-out: EC50 MERS (HAE)
Junin virus [5] = test: microbe, parasite or virus in culture; assay type: cell-based; conditions: Mammarenavirus juninense, Vero; for EC90: read-out: EC90 Junin Vero
Junin virus [6] = test: microbe, parasite or virus in culture; assay type: cell-based; conditions: Mammarenavirus juninense, HeLa; for EC50: read-out: EC50 HCS Junin HeLa; for EC90: read-out: EC90 HCS Junin HeLa
[7] = test system: MERS-CoV (Strain Jordan N3); test: microbe, parasite or virus in culture; assay type: cell-based; conditions: Middle East respiratory syndrome-related coronavirus, Vero, read-out: EC50 MERS-CoV Vero
Lassa virus = test: microbe, parasite or virus in culture; assay type: cell-based; conditions: Mammarenavirus lassaense, HeLa; for EC50: read-out: EC50 HCS Lassa HeLa; for EC90: read-out: EC90 HCS Lassa HeLa
[8] = mouse, in vivo
[9] = test system: MERS-CoV isolate HCoV-EMC/2012; parameters: species or system rhesus monkeys; conditions: rhesus monkey, in vivo
SARS-CoV [10] = test system: SARS-CoV; parameters: species or system mice; conditions: mouse, in vivo
MERS-CoV [11] = test: microbe, parasite or virus in culture; assay type: cell-based; conditions: Middle East respiratory syndrome-related coronavirus, Calu-3 2B4, read-out: EC50 MERS (Calu-3)
SARS-CoV [12] = test: microbe, parasite or virus in culture; assay type: cell-based; conditions: Severe acute respiratory syndrome coronavirus, Calu-3 2B4, read-out: EC50 SARS (Calu-3)

SMILES | EC50 (SARS-CoV [1]) [nM] | CC50 (in vitro [2]) [nM] | CC50 (in vitro [3]) [nM] | EC50 (MERS-CoV [4]) [nM] | EC90 (Junin virus [5]) [nM] | EC50 (Junin virus [6]) [nM] | EC90 (Junin virus [6]) [nM] | EC50 [7] [nM] | EC50 (Lassa virus) [nM] | EC90 (Lassa virus) [nM] | also measured
N#C[C@@]1(c2ccc3c(N)ncnn23)O[C@H](CO)[C@@H](O)[C@H]1O [Compound 1, (2R,3R, 4S, 5R)-2-(4-aminopyrrolo[1,2-f][1,2,4]triazin-7-yl)-3,4-dihydroxy-5-(hydroxymethyl)tetrahydrofuran-2-carbonitrile] | 220 | > 100000 | > 100000 | 460 | > 47000 | – | – | – | – | – | –
CCC(CC)COC(=O)[C@H](C)NP(=O)(OC[C@H]1O[C@@](C#N)(c2ccc3c(N)ncnn23)[C@H](O)[C@@H]1O)Oc1ccccc1 (stereo partly drawn) [Compound 9, (2S)-2-ethylbutyl 2-((((2R,3S,4R,5R)-5-(4-aminopyrrolo[1,2-f][1,2,4]triazin-7-yl)-5-cyano-3,4-dihydroxytetrahydrofuran-2-yl)methoxy)(phenoxy)phosphorylamino)propanoate] | – | – | – | – | > 47000 | 490 | 1250 | 460 | 2000 | 4210 | EC50 (Junin virus [5]; read-out: EC50 Junin Vero): > 47000 nM
CCC(CC)COC(=O)[C@H](C)N[P@](=O)(OC[C@H]1O[C@@](C#N)(c2ccc3c(N)ncnn23)[C@H](O)[C@@H]1O)Oc1ccccc1 [Compound 32, (S)-2-ethylbutyl 2-(((S)-(((2R,3S,4R,5R)-5-(4-aminopyrrolo[2,1-f][1,2,4]triazin-7-yl)-5-cyano-3,4-dihydroxytetrahydrofuran-2-yl)methoxy)(phenoxy)phosphoryl)amino)propanoate] | 69 | > 10000 | > 10000 | 74 | – | 470 | 1260 | 580 | 1650 | 3310 | Plasma stability [8]: improved the plasma stability; Respiration rates [9]: tended to be higher at Day 6 in vehicle-treated animals; Viral RNA in the liver, spleen, kidney and bladder tissue [9]: below the limit of detection; Viral RNA in the mediastinal lymph node [9]: detected in all animals; Viral RNA in the respiratory tract [9]: significantly reduced; Viral load in nose swabs and throat swabs [9]: no difference in viral load; Body weight and body temperature during the course of the infection ([9]; iv, 10 mg/kg): did not change appreciably; Cumulative clinical scores ([9]; iv, 10 mg/kg): notably higher in vehicle-treated animals; Disease symptoms ([9]; iv, 10 mg/kg): less pronounced; Changes in body weight post infection (SARS-CoV [10]): no evidence of weight loss; Expiration Time and End Expiratory Pause (whole body plethysmography) (SARS-CoV [10]): reduced; Infectious virus in lung tissue by plaque assay (SARS-CoV [10]): significantly decreased; Penh values (whole body plethysmography) (SARS-CoV [10]): lower compared to vehicle-treated animals; EC50 (MERS-CoV [11]): 30 nM; EC50 (SARS-CoV [12]): 10 nM
